{"source": "paper PMC3974779", "about": "“Pterostilbene-Isothiocyanate Conjugate Suppresses Growth of Prostate Cancer Cells Irrespective of Androgen Receptor Status” (PLoS ONE, 2014)", "key": {"CHO cells": {"test_system": "CHO cells", "assay": "MTT cytotoxicity assay", "format": "cell-based", "conditions": "Cricetulus griseus, CHO noncancer cells, 24 h exposure, read-out: IC50 value (50% growth inhibition)", "description": "(§1) MTT assay was carried out as described previously. In brief, 5×10^3 cells in 200 μl of medium were seeded in 96-well plates (Griener, Germany). After 24 h, the cells were treated with various concentrations (0.1, 1, 10, 100 and 1000 μM) of RESV, PTER and conjugate. The control cells were treated with 0.1% DMSO (vehicle control). The cultured cells were assayed after 24 h by adding 20 μl of 5 mg/ml MTT followed by incubating at 37°C for 4 h. The MTT containing media was then aspirated and 200 μl DMSO (Himedia, Mumbai, India) was added to dissolve the formazone crystals. The optical density (OD) was measured at 570 nm using ELISA plate reader (Fluostar optima, BMG Labtech, Germany). The percentage inhibition was calculated as: [drawing 1]\n(§2) The dose response curve and IC50 values were obtained by nonlinear regression analysis [non-linear regression (sigmoidal dose response with variable slope)] using Graph Pad Prism, version 5.02 software (Graph Pad Software Inc., CA, USA)."}, "LNCaP cells": {"test_system": "LNCaP cells", "assay": "MTT cytotoxicity assay", "format": "cell-based", "conditions": "Homo sapiens, 24 h, 24 h exposure, mean ± SEM, read-out: IC50 value (50% growth inhibition)", "description": "as §1, §2"}, "COS-1 cells": {"test_system": "COS-1 cells", "assay": "MTT cytotoxicity assay", "format": "cell-based", "conditions": "Chlorocebus aethiops, COS-1 noncancer cells, 24 h exposure, read-out: IC50 value (50% growth inhibition)", "description": "as §1, §2"}, "PC-3 cells": {"test_system": "PC-3 cells", "assay": "MTT cytotoxicity assay", "format": "cell-based", "conditions": "Homo sapiens; PC-3, MTT, 24 h exposure, mean ± SEM; read-out: IC50 value (50% growth inhibition)", "description": "as §1, §2"}, "[1]": {"target": "T1, AR nuclear localization in LNCaP cells (Homo sapiens, UniProt P10275)", "T1 construct": "expressed in transfected cells; host or cells: LNCaP and PC-3", "T1 sequence (P10275 whole entry)": "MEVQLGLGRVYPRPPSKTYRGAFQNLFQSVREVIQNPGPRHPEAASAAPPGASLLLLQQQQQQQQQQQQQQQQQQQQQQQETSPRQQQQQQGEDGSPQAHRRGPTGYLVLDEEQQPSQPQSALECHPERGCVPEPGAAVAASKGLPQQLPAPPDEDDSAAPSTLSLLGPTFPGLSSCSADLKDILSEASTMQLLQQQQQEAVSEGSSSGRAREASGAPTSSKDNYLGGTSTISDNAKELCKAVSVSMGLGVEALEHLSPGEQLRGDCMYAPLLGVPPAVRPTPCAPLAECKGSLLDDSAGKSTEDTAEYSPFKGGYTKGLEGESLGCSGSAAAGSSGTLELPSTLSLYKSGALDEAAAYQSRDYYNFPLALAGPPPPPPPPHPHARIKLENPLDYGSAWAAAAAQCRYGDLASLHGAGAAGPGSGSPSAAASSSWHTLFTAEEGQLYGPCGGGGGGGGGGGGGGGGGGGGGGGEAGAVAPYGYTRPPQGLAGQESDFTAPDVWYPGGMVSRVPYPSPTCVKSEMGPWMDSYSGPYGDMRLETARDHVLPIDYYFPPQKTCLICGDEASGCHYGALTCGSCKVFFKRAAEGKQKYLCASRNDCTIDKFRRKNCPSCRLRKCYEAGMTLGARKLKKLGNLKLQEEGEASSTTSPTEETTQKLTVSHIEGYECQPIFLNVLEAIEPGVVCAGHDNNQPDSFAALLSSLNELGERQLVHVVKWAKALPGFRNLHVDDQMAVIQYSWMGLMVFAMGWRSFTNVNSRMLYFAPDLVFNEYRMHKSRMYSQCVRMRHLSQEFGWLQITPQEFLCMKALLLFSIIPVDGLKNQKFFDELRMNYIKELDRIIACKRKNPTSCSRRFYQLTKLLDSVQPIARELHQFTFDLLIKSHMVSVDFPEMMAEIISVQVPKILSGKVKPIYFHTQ", "assay": "GFP-AR nuclear localization", "format": "cell-based", "conditions": "10 and 20 μM with 10 nM DHT", "description": "(§3) For localization studies, pEGFP-AR plasmid was transfected to LNCaP and PC-3 cells (300 ng/10^5 cells)."}, "[2]": {"target": "T2, AR nuclear localization in PC-3 cells (Homo sapiens, UniProt P10275)", "T2 construct": "expressed in transfected cells; host or cells: LNCaP and PC-3", "T2 sequence (P10275 whole entry)": "as above", "assay": "GFP-AR nuclear localization", "format": "cell-based", "conditions": "PC-3, 10 and 20 μM with 10 nM DHT", "description": "as §3"}, "[3]": {"test_system": "cleaved caspase-3 in LNCaP cells", "assay": "Akt/ERK silencing or inhibition, cleaved caspase-3 immunoblot", "format": "cell-based, human", "description": "(§4) The siRNAs against human Akt and ERK and control siRNA were purchased commercially from Santa Cruz Biotechnology (USA). The LNCaP and PC-3 PCa cells were transfected with siRNAs (at a final concentration of 100 nM) using polyfect transfection reagent (Qiagen, CA, USA) according to manufacturer’s instructions. After 24 h of transfection, the cells were washed properly and replaced with fresh medium. The cells were then treated with 20 μM conjugate for 24 h, and finally protein lysates were prepared on completion of treatment. The levels of p-Akt, p-ERK and cleaved caspase-3 expressions were detected by Western blot analysis.\nFigure 5 Differential role of PI3K/Akt and MAPK/ERK pathways in conjugate induced apoptosis of prostate cancer cells. Effects of siRNA mediated silencing of Akt and ERK on conjugate-induced apoptosis of (A) PC-3 and (B) LNCaP cells. LNCaP and PC-3 PCa cells were transfected with siRNAs (at a final concentration of 100 nM) using polyfect transfection reagent. After 24 h of transfection the cells were treated with 20 μM conjugate and allowed to grow for another 24 h. The cell lysates were prepared and the level of p-Akt, p-ERK and cleaved caspase-3 proteins were detected by immunoblot analysis. The histogram on the right panel of each figure represents densitometric analyses of the image data and expressed as percent of control where the results are mean ± SEM of three independent experiments. *and # represents statistically significant difference with respect to control and 20 μM conjugate treated groups respectively at p<0.05.\nSupplementary file pone.0093335.s001.tif: Figure S1 (A) Effects of the Akt Kinase inhibitor (A6730) and/or the ERK inhibitor (PD98059) on the conjugate-induced apoptosis of PC-3 and (B) LNCaP cells. The cells were pre-treated with A6730 (5 μM) and/or PD98059 (20 μM) for 1 h before the addition of 20 μM conjugate for additional 24 h (total inhibitor exposure time was 25 h). The collected cell lysates were then immunoblotted using respective antibodies. The histogram on the right panel of each figure represents densitometric analyses of the image data and expressed as percent of control where the results are mean ± SEM of three independent experiments. *and # represents statistically significant difference with respect to control and 20 μΜ conjugate treated groups respectively at p<0.05. (TIF) Click here for additional data file."}, "p-Akt in LNCaP cells": {"test_system": "p-Akt in LNCaP cells", "assay": "Immunoblot of Akt phosphorylation", "format": "cell-based, human", "conditions": "below 20 μM, 24 h", "description": "(§5) The whole-cell lysates were prepared as described previously in immunoprecipitation (IP) buffer containing 50 mM Tris-HCl (pH 8.0), 150 mM NaCl, 5 mM EDTA, and 1% Triton X-100. Protein aliquots of 500 μg were then incubated overnight at 4°C using 2 μg of antibody directed against AR. The Protein A-Cl Agarose beads were then added and further incubated for 6 h at 4°C. The immunoprecipitates were washed four times with the IP buffer and the immunocomplexes were recovered by boiling in SDS sample buffer. Finally the western blot was carried out using anti-AR, anti-SRC-1 and anti-GRIP-1 antibodies (Santa Cruz, CA, USA). For western blot analysis, the cell lysates were prepared after harvesting them in lysis buffer. About 40 μg of total protein was electrophoresed by 12% SDS-PAGE, and the western blotting was carried out using standard protocol. In brief, the analyzed proteins were transferred to nylon membranes. The blots were then blocked with TBST buffer (20 mM Tris-Cl, pH 7.5, 150 mM sodium chloride, 0.05% Tween-20) containing 5% skim milk powder. They were then washed with TBST buffer and incubated overnight at 4°C with the same buffer containing appropriate amounts of primary antibodies: caspase-3, Bax, Bcl-2, Akt, p-Akt, ERK, p-ERK, AR, SRC-1, GRIP-1 (1∶500) and β-actin (1∶1000). The blots were then washed and incubated with anti-rabbit secondary antibody (1∶20,000) conjugated with horseradish peroxidase (HRP). Color development was performed in the dark by using an ECL kit (Amersham, GE Healthcare, Buckinghamshire, UK). The developed blots were subjected to densitometric analysis by ImageJ 1.43 software (NIH, USA) using β-actin as internal control.\nas §4"}, "p-Akt in PC-3 cells": {"test_system": "p-Akt in PC-3 cells", "assay": "Immunoblot of Akt phosphorylation", "format": "cell-based, human", "conditions": "24 h", "description": "as §5, §4"}}, "data": [{"smiles": "COc1cc(/C=C/c2ccc(O)c(/C=N/NC(N)=S)c2)cc(OC)c1", "note": "[conjugate, Pterostilbene-isothiocyanate conjugate]", "values": [{"measurement": "IC50", "setting": "CHO cells", "value": "> 100", "unit": "µM"}, {"measurement": "IC50", "setting": "LNCaP cells", "value": "40 ± 1.12", "unit": "µM"}, {"measurement": "IC50", "setting": "COS-1 cells", "value": "> 100", "unit": "µM"}, {"measurement": "IC50", "setting": "PC-3 cells", "value": "45 ± 1.5", "unit": "µM"}, {"measurement": "DHT induced nuclear localization of AR", "setting": "[1]", "value": "significantly inhibited"}, {"measurement": "DHT induced nuclear localization of AR", "setting": "[2]", "value": "significantly inhibited"}, {"measurement": "increase in cleaved caspase-3 protein level", "setting": "[3]; Akt-silenced LNCaP cells, 20 μM conjugate", "value": "~4.5", "unit": "folds"}, {"measurement": "increase in cleaved caspase-3 level", "setting": "[3]; ERK-silenced LNCaP cells, 20 μM conjugate", "value": 6.5, "unit": "folds"}, {"measurement": "cleaved caspase-3 in ERK-silenced cells plus conjugate relative to conjugate alone", "setting": "[3]; LNCaP, 20 μM conjugate", "value": "about 1.4 times"}, {"measurement": "level of cleaved caspase-3 vs conjugate alone", "setting": "[3]; LNCaP, A6730 (5 μM) combined with 20 μM conjugate", "value": "did not show any significant increase"}, {"measurement": "level of cleaved caspase-3 vs conjugate alone", "setting": "[3]; LNCaP, co-treatment with PD98059 (20 μM) and 20 μM conjugate", "value": "significantly increased"}, {"measurement": "effect on level of p-Akt", "setting": "p-Akt in LNCaP cells", "value": "negligible effects"}, {"measurement": "decrease in level of p-Akt", "setting": "p-Akt in PC-3 cells; PC-3, 20 μM", "value": "~2.2", "unit": "folds"}, {"measurement": "decrease in level of p-Akt", "setting": "p-Akt in PC-3 cells; PC-3, 40 μM", "value": "~4.4", "unit": "folds"}]}]}
